Where two headings read alike, the source gives them in different places. Values belong to the compound of their own block, whether it stands above or below them.
Assays:
α7 = conditions: alone and co-applied with an α7 PAM; cited from earlier work
α7 nAChR [1] = target: T1, α7 nAChR (Homo sapiens, UniProt P36544); assay: α7 responses on co-application with the type II PAM TQS (silent agonism); assay type: cell-based; conditions: for α7 functional classification (silent agonist / inactive): inactive alone, active with a PAM = silent agonist; for response when co-applied with TQS: 100 µM compound with 30 µM racemic TQS, net charge
T1 construct: expressed in transfected cells; host or cells: Xenopus laevis oocytes (injected RNA)
T1 sequence (P36544 23-502): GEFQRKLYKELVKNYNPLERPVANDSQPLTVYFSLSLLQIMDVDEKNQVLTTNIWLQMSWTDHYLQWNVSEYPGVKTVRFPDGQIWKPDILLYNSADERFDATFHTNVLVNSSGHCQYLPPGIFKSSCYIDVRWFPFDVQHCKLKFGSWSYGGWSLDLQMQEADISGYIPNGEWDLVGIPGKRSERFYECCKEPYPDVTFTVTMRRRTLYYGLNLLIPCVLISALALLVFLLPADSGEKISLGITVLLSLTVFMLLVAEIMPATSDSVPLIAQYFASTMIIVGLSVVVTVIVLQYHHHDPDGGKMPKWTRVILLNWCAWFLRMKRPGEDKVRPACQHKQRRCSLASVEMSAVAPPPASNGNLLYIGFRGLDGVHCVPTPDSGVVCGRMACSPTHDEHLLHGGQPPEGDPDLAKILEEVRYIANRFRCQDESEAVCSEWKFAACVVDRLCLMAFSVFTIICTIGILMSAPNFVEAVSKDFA
Method: (§1) Compounds were co-applied at a concentration of 100 µM with 30 µM racemic TQS (Figure 3A). All compounds except S4, S5, and S8 gave large responses when co-applied with TQS, consistent with silent agonism of α7 (see Table S1 for ANOVA). Active compounds were also evaluated across a range of concentrations with the alternative PAM, PNU-120596 (Figure 3B). The curve-fit values for Imax (Table 1) should be taken only as approximation of the relative efficacies of the compounds, due to the large variability frequently observed in PNU-120596-potentiated responses, as evidenced by the large SEMs of the responses obtained with high concentrations.
(§2) Figure 3 Responses of α7 nAChR to sulfonium compounds coapplied with PAMs. (A) Potentiation of α7 responses with 30 µM racemic TQS. Shown are the average net-charge responses of seven or eight oocytes ± SEM. (B) Concentration-response studies of peak currents generated by compounds that gave positive responses with TQS, coapplied with 10 µM PNU-120596. Each point represents the average (±SEM) of at least four oocytes.
The human nAChR clones were obtained from Jon Lindstrom (University of Pennsylvania, Philadelphia, PA, USA). Mouse muscle subunit clones were obtained from Jim Boulter (Salk Institute, La Jolla, CA, USA) and Paul Gardner (Dartmouth, Hanover, NH, USA). The human resistance-to-cholinesterase 3 (RIC3) clone was obtained from Millet Treinin (Hebrew University, Jerusalem, Israel) and co-injected with α7 to improve the level and speed of α7 receptor expression without affecting the pharmacological properties of the receptors. Subsequent to linearization and purification of the plasmid DNAs, RNAs were prepared using the mMessage mMachine in vitro RNA transcription kit (Ambion, Austin, TX, USA).
(§3) Experiments were conducted using OpusXpress 6000A (Molecular Devices, Union City, CA, USA). Both the voltage and current electrodes were filled with 3 M KCl. Oocytes were voltage-clamped at −60 mV at room temperature (24 °C). The oocytes were bath-perfused with Ringer’s solution (115 mM NaCl, 2.5 mM KCl, 1.8 mM CaCl2, 10 mM HEPES, and 1 μM atropine, pH 7.2) at 2 mL/min for α7 receptors, or 4 mL/min for heteromeric nAChR. To evaluate the effects of experimental compounds, responses were compared to control ACh-evoked responses, defined as the average of two initial applications of ACh made before test applications. ACh control concentrations were 60 µM for α7 receptors; 100 µM for α4(3)β2(2) and α3β4 receptors; 30 µM for α4β2α6β2β3 and muscle-type (αβ1εδ) receptors; and 10 µM for α4(3)β2(2) and α4(2)β2(2)α5 receptors.
(§4) Solutions were applied from 96-well plates via disposable tips. Drug applications were 12 s in duration, followed by 181 s washout periods for α7 receptors, or 6 s in duration followed by 301 s washout periods for heteromeric nAChR. The responses were calculated as both peak current amplitudes and net charge, as previously described. Data were collected at 50 Hz, filtered at 20 Hz for α7 receptors or filtered at 5 Hz for heteromeric nAChR, and analyzed by Clampfit (Molecular Devices, San Jose, CA, USA) and Excel (Microsoft, Redmond, WA, USA). Data were expressed as means ± SEM from at least four oocytes for each experiment and plotted with Kaleidagraph 4.5.2 (Abelbeck Software, Reading, PA, USA). Multi-cell averages were calculated for comparisons of complex responses. Averages of the normalized data were calculated for each of the 10,322 points in each of the 206.44 s traces (acquired at 50 Hz), as well as the standard errors for those averages.

α7 nAChR [2] = target: T1, α7 nAChR; assay: α7 concentration-response on co-application with 10 µM PNU-120596; assay type: cell-based; conditions: peak currents, co-applied with 10 µM PNU-120596, Hill fit; for IMax (PNU Activation): approximation only
Method: as §1, §2, §3, §4

α7 nAChR [3] = target: T1, α7 nAChR; assay: Inhibition of α7 ACh-evoked responses; assay type: cell-based; conditions: for effect on 60 µM ACh response at 1 mM: compound 1 mM co-applied with 60 µM ACh; for inhibition at 100 µM: read-out: inhibition of responses to 60 µM ACh; for inhibition of responses to 60 µM ACh: compound co-applied at 100 µM
Method: Figure 4 Effects sulfonium compounds on α7 ACh-evoked net-charge responses. (A) Effects of the sulfonium compounds at 100 µM co-applied with 60 µM relative to responses to 60 µM ACh applied alone. Data are the averages (±SEM) from seven or eight cells under each condition. (B) Effects of select sulfonium compounds at 1 mM co-applied with 60 µM relative to responses to 60 µM ACh applied alone. Data are the averages (±SEM) from seven or eight cells under each condition. Statistical significance was determined by pairwise t-test with p values corrected for multiple comparisons; * p < 0.05, ** p < 0.001.
The sulfonium compounds that were active with TQS but produced little inhibition of ACh response at a concentration of 100 µM were tested as inhibitors of ACh response at a concentration of 1 mM (Figure 4B).
We tested S8 across a range of concentrations for its ability to inhibit 60 µM ACh responses (Figure 5A). Note that we use 60 µM as an ACh control because this concentration gives nearly maximal (93%) net-charge responses, with the time course of the responses roughly following the speed of solution exchange. […] We tested whether inhibition of α7 responses by S8 was surmountable by increasing ACh concentration, consistent with a competitive mechanism of inhibition. However, since α7 responses to concentrations of ACh greater than 60 µM occur more rapidly than solution exchange in the chamber, we first pre-applied 5 µM S8 prior to the co-application of 5 µM S8 with either 60 µM or 1 mM ACh (Figure 5B). The 60 µM net-charge responses were reduced to 28 ± 2% of controls (n = 8) and 60 µM peak currents to 21 ± 3 % controls. The 1 mM net-charge responses were reduced to 56 ± 6 % of those obtained without S8 co-application, although the S8 co-application increased the peak-current amplitudes compared to 60 µM controls from 1.78 ± 0.15 to 3.72 ± 0.81 (n = 8).
Figure 5 Inhibition of α7 ACh-evoked responses by S8. (A) Concentration-response studies of α7 net-charge responses to 60 µM ACh co-applied with increasing concentrations of S8. To confirm the stability of the ACh responses, applications of ACh plus S8 were alternated with applications of ACh alone. Data are the averages of eight cells (±SEM). See text for curve-fit values. (B) Effects of 5 µM S8 on responses to either 60 µM or 1 mM ACh. The traces shown across the top are the averaged raw data from seven cells, each normalized to the peak current of the first ACh control response shown. In order to assure that the S8 was present at 5 µM throughout the ACh-evoked responses, a 30 s pre-application was made of 5 µM S8 alone. The lower traces show averaged responses to 60 µM or 1 mM ACh alone or with the 5 µM S8 pre- and co-application. The details of the data are described in Methods.
as §3
Solutions were applied from 96-well plates via disposable tips. Drug applications were 12 s in duration, followed by 181 s washout periods for α7 receptors, or 6 s in duration followed by 301 s washout periods for heteromeric nAChR. […]

α3β4 nAChR = target: T2, α3β4 nAChR (Homo sapiens, UniProt P30926+P32297); assay: Inhibition of α3β4 100 µM ACh-evoked peak currents; assay type: cell-based; conditions: co-application with 100 µM ACh, peak currents
T2 construct: expressed in transfected cells; host or cells: Xenopus laevis oocytes (injected RNA)
T2 sequence (P32297 32-505): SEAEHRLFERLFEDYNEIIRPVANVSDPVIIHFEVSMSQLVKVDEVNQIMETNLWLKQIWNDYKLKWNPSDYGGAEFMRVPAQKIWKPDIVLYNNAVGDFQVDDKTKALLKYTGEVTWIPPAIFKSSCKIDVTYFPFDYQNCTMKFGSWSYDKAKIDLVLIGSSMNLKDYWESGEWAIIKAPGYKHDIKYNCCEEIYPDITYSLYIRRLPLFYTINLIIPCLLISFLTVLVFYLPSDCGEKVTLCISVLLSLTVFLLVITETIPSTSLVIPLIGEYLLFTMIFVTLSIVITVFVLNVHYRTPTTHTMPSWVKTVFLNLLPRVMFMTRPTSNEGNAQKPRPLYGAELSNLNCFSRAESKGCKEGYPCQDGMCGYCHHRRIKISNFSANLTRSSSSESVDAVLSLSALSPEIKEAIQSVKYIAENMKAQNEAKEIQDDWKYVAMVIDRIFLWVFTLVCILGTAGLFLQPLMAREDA
T2 sequence (P30926 22-498): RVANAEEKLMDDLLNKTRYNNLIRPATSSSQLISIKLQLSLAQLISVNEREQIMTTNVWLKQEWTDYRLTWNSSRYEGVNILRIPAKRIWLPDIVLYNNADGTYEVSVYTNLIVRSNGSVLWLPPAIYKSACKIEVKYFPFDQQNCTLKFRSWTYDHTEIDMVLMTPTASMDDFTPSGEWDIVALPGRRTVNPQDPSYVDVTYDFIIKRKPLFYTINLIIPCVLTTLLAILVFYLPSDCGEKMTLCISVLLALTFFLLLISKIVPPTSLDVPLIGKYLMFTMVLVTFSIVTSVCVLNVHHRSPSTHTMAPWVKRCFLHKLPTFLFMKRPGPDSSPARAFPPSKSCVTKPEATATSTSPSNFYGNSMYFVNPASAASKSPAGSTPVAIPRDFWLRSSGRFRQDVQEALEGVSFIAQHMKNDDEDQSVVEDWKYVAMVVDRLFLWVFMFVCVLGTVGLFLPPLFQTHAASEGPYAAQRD
Method: (§5) Although none of the other sulfonium compounds activated neuronal heteromeric receptors, several of them produced inhibition of ACh-evoked responses. Shown in Figure 7A are concentration-response studies for the compounds that were active antagonists of α3β4 nAChR (Table 3). Some compounds were also tested as antagonists of α4β2 subtypes formed with concatamers (Figure 7B).
Figure 7 Inhibition of heteromeric nAChR by sulfonium compounds. (A) Inhibition of α3β4 100 µM ACh-evoked peak currents by the co-application of the sulfonium compounds. Data are the averaged of six to eight oocytes (±SEM). To confirm the stability of the ACh responses, applications of ACh plus the sulfonium compounds were alternated with applications of ACh alone. (B) Inhibition of ACh control peak-current responses of α4-containing nAChR formed with concatamers by 100 µM of the sulfonium compounds indicated. Data are the average of six to eight oocytes (±SEM).
as §3, §4

pKa by titration = assay type: physicochemical
From the text: One of the questions that emerges from the data is why aromatic sulfoniums as structurally similar as S5, S9, and S10 provide different responses when coapplied with TQS. Indeed, compounds S5 and S9 virtually overlap in their best docked poses (Supplementary Figure S1), but the α7 response of S9 and TQS was dramatically greater than that of S5 and TQS (p < 0.001, Table S1). The formation of cation–pi interactions is a key feature of the binding of nicotinic orthosteric ligands, and the electronic distribution of the cation can be compared qualitatively in a series of compounds using molecular electrostatic potentials (MEPs). Analysis of the MEPs shown in Figure 9 reveal that the substituents on the benzene ring can modulate the intensity of the positive charge on the sulfonium center. Compound S5, for instance, has two hydroxyl groups which are strongly electron donating, and in comparison to compound S9, which has only one hydroxyl group, the intensity of the positive charge is […]. Another factor may be that a lone pair on the ortho hydroxyl substituent is donating electron density through space to the neighboring sulfonium, redistributing its positive charge. Compound S10 also has an ortho hydroxyl group, but unlike compound S5, compound S10 also has a nitro group, which is a strong electron-withdrawing group that may offset the electron-donating impact of the ortho hydroxyl group. Inspection of the MEP surface shown in Figure 9 does indicate that, relative to S5, the S10 sulfonium bears greater positive electrostatic potential. Given that compounds such as para-nitrophenol are acidic, with a pKa of ~7 for the phenolic hydroxyl, we also considered whether the deprotonated forms of S5, S9, and S10 might be accessible at the pH of our experiments.
Thus, all three compounds have varying proportions of the phenolic OH in the phenoxide form at the pH of Ringers solution used in the experiments. […] Future work on analogs of these compounds may be focused on substituents that are non-ionizable, and thus preserve a positive molecular charge derived from the sulfonium center.

[4] = test system: α4β2 subtypes formed with concatamers; assay: Inhibition of ACh control peak-current responses of α4-containing nAChR formed with concatamers; assay type: cell-based, human; conditions: 100 µM compound, Figure 7B
Method: as §5
Figure 7 Inhibition of heteromeric nAChR by sulfonium compounds. (A) Inhibition of α3β4 100 µM ACh-evoked peak currents by the co-application of the sulfonium compounds. Data are the averaged of six to eight oocytes (±SEM). […]
as §4, with “Drug applications were 12 s in duration, followed by 181 s washout periods for α7 receptors, or 6 s in duration followed by 301 s washout periods for heteromeric nAChR.” left out

[5] = 5 µM S8 pre-applied and co-applied

SMILES: CC[S+]1CCN(c2ccccc2)CC1.O=S(=O)([O-])C(F)(F)F [1-ethyl-4-phenylthiomorpholin-1-ium trifluoromethanesulfonate]
- behaviour at α7 (α7): inactive when applied alone but active when co-applied with an α7 PAM

SMILES: CCOC(=O)C[S+](C)C.[Br-] [Compound S2, (2-ethoxy-2-oxoethyl)dimethylsulfonium bromide]
- α7 functional classification (silent agonist / inactive) (α7 nAChR [1]): efficacious silent agonist
- IMax (PNU Activation) (α7 nAChR [2]): 16 ± 6
- effect on 60 µM ACh response at 1 mM (α7 nAChR [3]): significant inhibition
- inhibition at 100 µM (α7 nAChR [3]): ≤ 10%

SMILES: COc1ccc([N+](=O)[O-])cc1C[S+](C)C.[Br-] [Compound S3, (2-methoxy-5-nitrobenzyl)dimethylsulfonium bromide]
- α7 functional classification (silent agonist / inactive) (α7 nAChR [1]): silent agonist activity
- IMax (PNU Activation) (α7 nAChR [2]): 22 ± 2.5
- EC50 (α7 nAChR [2]; read-out: EC50 (PNU Activation)): 263 ± 23 µM
- inhibition at 100 µM (α7 nAChR [3]): ~50%
- IC50 (α3β4 nAChR): 18 ± 2.6 µM

SMILES: OCC[S+](CCO)CCO.[Br-] [Compound S4, tris(2-hydroxyethyl)sulfonium bromide]
- response when co-applied with TQS (α7 nAChR [1]): did not generate responses
- α7 functional classification (silent agonist / inactive) (α7 nAChR [1]): simply inactive
- inhibition of responses to 60 µM ACh (α7 nAChR [3]; net charge): failed to produce inhibition

SMILES: C[S+](C)c1ccc(O)cc1O [Compound S5, (2,4-dihydroxyphenyl)dimethylsulfonium trifluoromethanesulfonate]
- response when co-applied with TQS (α7 nAChR [1]): did not generate responses
- α7 functional classification (silent agonist / inactive) (α7 nAChR [1]): simply inactive
- inhibition of responses to 60 µM ACh (α7 nAChR [3]; net charge): failed to produce inhibition
- pKa (pKa by titration; phenolic hydroxyl, data not shown for S9, S10, read-out: pKa): ~6.3
- pKa (pKa by titration; read-out: pKa for the second hydroxyl): 9.2

SMILES: C[S+](C)CC(=O)c1ccccc1.F[B-](F)(F)F [Compound S7, dimethyl(2-oxo-2-phenylethyl)sulfonium tetrafluoroborate]
- α7 functional classification (silent agonist / inactive) (α7 nAChR [1]): silent agonist activity
- IMax (PNU Activation) (α7 nAChR [2]): >1.1

- 60 µM ACh peak currents, % controls (α7 nAChR [3]; [5]): 21 ± 3%
- 1 mM ACh net-charge responses, % of those obtained without S8 co-application (α7 nAChR [3]; [5]): 56 ± 6%
- remaining activity at 5 µM (α7 nAChR [3]; 5 µM S8 pre-applied and co-applied, n = 8, read-out: 60 µM ACh net-charge responses, % of controls): 28 ± 2%
- IC50 (α7 nAChR [3]; net charge, co-application, eight cells, read-out: IC50 for inhibition of 60 µM ACh responses): 4.9 ± 2.7 µM
- 1 mM ACh peak-current amplitudes compared to 60 µM controls (α7 nAChR [3]; with 5 µM S8 pre- and co-application, n = 8): 3.72 ± 0.81
- IC50 (α3β4 nAChR): 3.4 ± 0.4 µM
SMILES: C[S+](Cc1ccccc1)Cc1ccccc1 [Compound S8, dibenzyl(methyl)sulfonium tetrafluoroborate]
- relative antagonist activity [4]: most active antagonist

SMILES: CC[S+](CC)CC [Compound S11, triethylsulfonium iodide]
- α7 functional classification (silent agonist / inactive) (α7 nAChR [1]): silent agonist
- IMax (PNU Activation) (α7 nAChR [2]): >1.8
- effect on 60 µM ACh response at 1 mM (α7 nAChR [3]): not statistically significant
- IC50 (α3β4 nAChR): 108 ± 20 µM

Source: article PMC8464850, “Sulfonium Ligands of the α7 nAChR” (Molecules, 2021)
